Measurements: PubChem BioAssay AID2060504 (Molecular Pharmacology Branch, DTP, NCI, 2025)

Test system: 636577-100-R-J1-PDC complex spheroid viability
Test: Anticancer human tumor 636577-100-R-J1-PDC patient-derived endometrial adenocarcinoma cell line growth inhibition [GQUAD]
Details: for IC50: curve of first compound; for viability, T/C: stronger effect = lower value
Description: DNA G-quadruplex Stabilizer Agents in Combinations in Complex Spheroids
A high-throughput screen of multi-cell type tumor spheroids was designed to identify active combinations of DNA G-quadruplex stabilizer agents and targeted small molecules. Complex spheroids include a stromal component modeled by human endothelial cells (HUVEC) and fibroblasts modeled by human mesenchymal stem cells (MSCs). The concentration ranges selected for each drug and investigational agent were based upon clinically achievable concentrations if the clinical Cmax of the agent was known.
Compounds. The drugs and investigational agents: pidnarulex (CX-5461; NSC782164), APTO-253 (NSC789042), BRACO-19 (NSC847499), peposertib (NSC802822), ceralasertib (NSC780249), elimusertib (NSC800525), camonsertib (NSC841442), AZD-1390 (NSC803789), olaparib (NSC753686), talazoparib (NSC767125), ART-558 (NSC835418), sotorasib (NSC818433), MRTX-1133 (NSC836407), SN-38 (NSC673596), topotecan (NSC609699), etoposide (NSC141540), doxorubicin (NSC123127), gemcitabine (NSC613327), 5-fluorouracil (NSC19893), paclitaxel (NSC125973), vemurafenib (NSC761431), panobinostat (NSC761190), R-306465 (JNJ-16241199; NSC773264), adavosertib (NSC754352), TP-3654 (NSC805149), carboplatin (NSC241240), KSQ-4279 (NSC840948), and staurosporine (NSC755774) were obtained from the National Cancer Institute (NCI) Developmental Therapeutics Program Chemical Repository (34). The FDA-approved anticancer drug set is available from the NCI Developmental Therapeutics Program. […] The stock solutions were prepared in dimethyl sulfoxide (DMSO, Sigma-Aldrich, St. Louis, MO, cat. D2650) at 800-fold the tested concentration and stored at -70 degrees C prior to their use. All drugs and investigational agents were tested over a range starting from a high concentration at or near the clinical Cmax and decreasing in half-log increments. If the clinical Cmax for an agent had not been determined, the highest concentration tested was 10 microM.
2.3 Cell Culture. All cells were maintained in an incubator at 37 degrees C and 5% CO2 with 95% humidity. The PDC lines were cultured according to standard operating procedures established by the NCI PDMR. All PDCs were thawed and cultured in Matrigel-coated flasks prepared with a working solution of 1X Ham's F-12 nutrient mix, without supplementation (Invitrogen, cat. 11765054), 100 U/mL penicillin-streptomycin (Invitrogen, cat. 15140122), and 2.5% Matrigel (Corning Inc., cat. 354248) for the first three passages. The 857933-349-R-J2-PDC line was cultured in 6C/Colon 1B media, which includes advanced DMEM/F-12 (Thermo Fisher Scientific, cat. 12634028), 10 mM HEPES (Thermo Fisher Scientific, cat. 15630080), 1X GlutaMAX supplement (Thermo Fisher Scientific, cat. 35050061), 0.1 mg/mL primocin (InvivoGen, cat. ant-pm-2), 10% defined fetal bovine serum, heat inactivated (HyClone Laboratories Inc., cat. SH30070.03HI), 50% L-WRN conditioned media (ATCC, cat. CRL-3276), 1.25 mM N-Acetyl-L-cysteine (Sigma-Aldrich, cat. A9165), 10 mM nicotinamide (Sigma-Aldrich, cat. N0636), 1X B-27 supplement (Thermo Fisher Scientific, cat. 17504044), 1X N-2 supplement (Thermo Fisher Scientific, cat. 17502048), 10 microM Y-27632 dihydrochloride (Tocris Bioscience, cat. 1254), and 50 ng/mL human EGF recombinant protein (Thermo Fisher Scientific, cat. PHG0311). The 485176-168-R4-J1-PDC line was cultured in Panc media, which includes all 6C/Colon 1B media components plus 100 ng/mL human FGF-10 (Thermo Fisher Scientific, cat. 100-26), 500 nM SB-431542 (Selleckchem, cat. S1067), and gastrin (Tocris, cat. 3006).
[…]
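Also: viability read after seven days of drug exposure.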
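For viability, T/C in this document: luminescence signal used as a proxy for viable cells; 100% = DMSO vehicle control wells.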

## COc1ccc([C@@H](O)c2cc(-c3ncnc4cc(N5CCOCC5)ccc34)c(F)cc2Cl)nn1 + Cc1[nH]c2ccc(F)cc2c1-c1nc2c3cccnc3c3ncccc3c2[nH]1
Second compound 0.0316 µM
  IC50: 670 nM
Second compound 0.1 µM
  IC50: 586 nM
Second compound 0.316 µM
  IC50: 682 nM
Second compound 1 µM
  IC50: 1080 nM
Second compound 3.16 µM
  IC50: < 31.6 nM
Second compound 10 µM
  IC50: 858 nM
Second compound 0.0316 µM, first compound 0.0316 µM
  viability, T/C: 59.3%
Second compound 0.0316 µM, first compound 0.1 µM
  viability, T/C: 79.9%
Second compound 0.0316 µM, first compound 0.316 µM
  viability, T/C: 103%
Second compound 0.0316 µM, first compound 1 µM
  viability, T/C: 26.9%
Second compound 0.0316 µM, first compound 3.16 µM
  viability, T/C: 47.1%
Second compound 0.0316 µM, first compound 10 µM
  viability, T/C: 26.8%
Second compound 0.1 µM, first compound 0.0316 µM
  viability, T/C: 44.1%
Second compound 0.1 µM, first compound 0.1 µM
  viability, T/C: 105%
Second compound 0.1 µM, first compound 0.316 µM
  viability, T/C: 63.6%
Second compound 0.1 µM, first compound 1 µM
  viability, T/C: 31.3%
Second compound 0.1 µM, first compound 3.16 µM
  viability, T/C: 54.6%
Second compound 0.1 µM, first compound 10 µM
  viability, T/C: 28.8%
Second compound 0.316 µM, first compound 0.0316 µM
  viability, T/C: 72.8%
Second compound 0.316 µM, first compound 0.1 µM
  viability, T/C: 105%
Second compound 0.316 µM, first compound 0.316 µM
  viability, T/C: 66%
Second compound 0.316 µM, first compound 1 µM
  viability, T/C: 47.4%
Second compound 0.316 µM, first compound 3.16 µM
  viability, T/C: 48.6%
Second compound 0.316 µM, first compound 10 µM
  viability, T/C: 30.1%
Second compound 1 µM, first compound 0.0316 µM
  viability, T/C: 71%
Second compound 1 µM, first compound 0.1 µM
  viability, T/C: 63.6%
Second compound 1 µM, first compound 0.316 µM
  viability, T/C: 60.5%
Second compound 1 µM, first compound 1 µM
  viability, T/C: 53.6%
Second compound 1 µM, first compound 3.16 µM
  viability, T/C: 35%
Second compound 1 µM, first compound 10 µM
  viability, T/C: 24.8%
Second compound 3.16 µM, first compound 0.0316 µM
  viability, T/C: 40%
Second compound 3.16 µM, first compound 0.1 µM
  viability, T/C: 38.4%
Second compound 3.16 µM, first compound 0.316 µM
  viability, T/C: 43.3%
Second compound 3.16 µM, first compound 1 µM
  viability, T/C: 33.5%
Second compound 3.16 µM, first compound 3.16 µM
  viability, T/C: 20.1%
Second compound 3.16 µM, first compound 10 µM
  viability, T/C: 16%
Second compound 10 µM, first compound 0.0316 µM
  viability, T/C: 70.2%
Second compound 10 µM, first compound 0.1 µM
  viability, T/C: 62.5%
Second compound 10 µM, first compound 0.316 µM
  viability, T/C: 64.2%
Second compound 10 µM, first compound 1 µM
  viability, T/C: 44.8%
Second compound 10 µM, first compound 3.16 µM
  viability, T/C: 36.7%
Second compound 10 µM, first compound 10 µM
  viability, T/C: 22.3%
